Reference: US9855265B2, “Methods for treating cancer with TrkA receptor tyrosine kinase antagonists” (VM Oncology LLC, priority 2014, dated 2018)
pIC50: −log10 of the molar value. Where two headings read alike, the source gives them in different places.

Key:
PKCgamma = PKCgamma (Homo sapiens, UniProt P05129); assay: radiometric kinase assay, other kinases: PKCgamma; type: biochemical; conditions: duplicate
Procedure: (§1) Compound inhibition in a radiometric based mixed micelle assay: In a final reaction volume of 25 μL, TrkA (h) ([…]) is incubated with the kinase reaction buffer (20 mM HEPES (pH 7.5), 10 mM MgCl2, 1 mM EGTA, 0.02% Brij 35, 0.02 mg/ml BSA, 0.1 mM Na3VO4, 2 mM DTT, 1% DMSO), 0.2 mg/ml substrate PolyEY(4:1) and […], and [^33P-ATP](specific activity approx. 500 cpm/pmol, concentration as required). The reaction is initiated by the addition of the MgATP mix. After incubation for at least 40 minutes at room temperature, the reaction is stopped by the addition of 5 μL of a 3% phosphoric acid solution. 10 μL of the reaction is then spotted onto a P30 filtermat and washed three times for 5 minutes in 75 mM phosphoric acid and once in methanol prior to drying and scintillation counting. TrkA: Recombinant Human Cytoplasmic Domain (amino acids 441-796), Histidine-tagged, expressed in insect cells. Activated in vitro via auto-phosphorylation. Mw=42.8 kDa. Substrates for kinases: poly(EY) for TRKA; poly(EY)(4:1) with 2 mM MnCl2, average Mw=16 kDa Standard conditions (unless otherwise specified): 30 nM TRKA, 0.2 mg/ml poly(EY)+2 mM MnCl2, and 10 μM ([γ-^33P]) ATP. Using the similar assay condition with other kinases of recombinant human cytoplasmic domain, the activities of other kinases could be also measured.

AXL = molecular target: T1, AXL (Homo sapiens, UniProt P30530); assay: radiometric kinase assay, other kinases: AXL; type: biochemical; conditions: duplicate
T1 construct: other kinases of recombinant human cytoplasmic domain
T1 sequence (P30530 473-894 limits assumed): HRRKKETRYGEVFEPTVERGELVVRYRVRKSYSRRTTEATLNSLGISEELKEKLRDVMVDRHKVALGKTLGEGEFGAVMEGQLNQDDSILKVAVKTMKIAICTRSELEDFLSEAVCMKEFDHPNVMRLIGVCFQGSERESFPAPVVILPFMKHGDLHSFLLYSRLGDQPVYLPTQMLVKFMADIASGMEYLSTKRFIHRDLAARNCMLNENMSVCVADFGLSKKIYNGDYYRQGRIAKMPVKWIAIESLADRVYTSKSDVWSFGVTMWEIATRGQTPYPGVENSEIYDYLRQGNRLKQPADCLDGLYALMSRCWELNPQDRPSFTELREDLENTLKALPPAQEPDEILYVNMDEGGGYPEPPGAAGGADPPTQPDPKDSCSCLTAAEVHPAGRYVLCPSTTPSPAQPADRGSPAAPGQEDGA
Procedure: as §1

[1] = system: BxPC-3 human pancreatic cancer cells; assay: Cell Viability and Proliferation Assay, BxPC-3; type: cell-based; conditions: after 24 incubation
Procedure: (§2) Cell Viability and Proliferation Assays. To assess the chemosensitivity of tumor cells, cell viability is measured by CellTiter-Glo® Luminescent Cell Viability Assay (Promega; Wis., USA) per the manufacturer's instruction. Briefly, 5×10^3 to 7×10^5 cells/ml are cultured in sterile 96-well plates in the presence of increasing concentrations of the drugs (test article, 0 to 100 μM), or vehicle in RPMI medium. The plates are then incubated for 24 to 96 h, and then 100 μl of CellTiter-Glo reagent is added to lyse the cells. After a 10-min incubation at room temperature, the luminescence is recorded in a luminometer with an integration time of 1 s per well. The luminescence signals for the drug-treated cells are normalized by the luminescence signal obtained from vehicle-treated cells. As an alternative method to quantitate cell viability, the trypan blue exclusion dye method was used. Vehicle- or drug-treated cells were assayed by adding trypan blue solution (0.4% in phosphate-buffered saline [PBS]) to the culture medium. After 3 min, the number of dead cells that retained the dye is compared to the total number of cells to calculate cell viability. GraphPad Prism 5 software is used to calculate IC50 and plot effect-dose curve of drugs. Multiplate reader: EnVision 2104 (PerkinElmer). % of control variability=100*[(X(drug_treated)−L(baseline))/(H(vehicle_control)−L(baseline))]. […]

[2] = system: NCI-N87 human stomach cancer cells; assay: Cell Viability and Proliferation Assay, NCI-N87; type: cell-based; conditions: after 24 incubation
Procedure: as §2

PKCmu/PKD1 = PKCmu/PKD1 (Homo sapiens, UniProt Q15139); assay: radiometric kinase assay, other kinases: PKCmu/PKD1; type: biochemical; conditions: duplicate
Procedure: as §1

[3] = system: SK-HEP-1 human liver cancer cells; assay: Cell Viability and Proliferation Assay, SK-HEP-1; type: cell-based; conditions: SK-HEP1, after 24 incubation
Procedure: as §2

FES/FPS = FES/FPS (Homo sapiens, UniProt P07332); assay: radiometric kinase assay, other kinases: FES/FPS; type: biochemical; conditions: duplicate
Sequence of FES/FPS (P07332 whole entry): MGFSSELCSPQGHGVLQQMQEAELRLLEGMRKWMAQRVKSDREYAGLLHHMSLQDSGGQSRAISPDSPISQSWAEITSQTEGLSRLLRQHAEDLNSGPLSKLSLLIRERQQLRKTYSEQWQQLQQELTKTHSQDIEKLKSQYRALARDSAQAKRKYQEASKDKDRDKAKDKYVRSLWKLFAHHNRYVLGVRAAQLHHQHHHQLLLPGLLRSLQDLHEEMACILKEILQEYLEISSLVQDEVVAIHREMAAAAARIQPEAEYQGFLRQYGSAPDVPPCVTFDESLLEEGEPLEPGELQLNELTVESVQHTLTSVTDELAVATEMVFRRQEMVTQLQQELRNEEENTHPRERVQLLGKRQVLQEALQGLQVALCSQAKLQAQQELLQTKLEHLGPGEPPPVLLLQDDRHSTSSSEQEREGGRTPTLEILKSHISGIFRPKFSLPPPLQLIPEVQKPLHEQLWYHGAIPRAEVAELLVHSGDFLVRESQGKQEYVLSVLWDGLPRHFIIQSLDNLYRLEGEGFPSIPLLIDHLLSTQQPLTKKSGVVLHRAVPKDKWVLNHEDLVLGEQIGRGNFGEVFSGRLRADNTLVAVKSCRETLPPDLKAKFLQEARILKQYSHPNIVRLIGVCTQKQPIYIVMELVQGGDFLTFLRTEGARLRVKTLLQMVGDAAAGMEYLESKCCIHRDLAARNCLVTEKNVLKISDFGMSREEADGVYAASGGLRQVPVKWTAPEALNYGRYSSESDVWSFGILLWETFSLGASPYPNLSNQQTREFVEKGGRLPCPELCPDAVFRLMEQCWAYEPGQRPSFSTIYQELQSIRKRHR
Procedure: as §1

IGF-1R = molecular target: T2, IGF-1R (Homo sapiens, UniProt P08069); assay: radiometric kinase assay, other kinases: IGF-1R; type: biochemical; conditions: duplicate
T2 construct: other kinases of recombinant human cytoplasmic domain
T2 sequence (P08069 960-1367 limits assumed): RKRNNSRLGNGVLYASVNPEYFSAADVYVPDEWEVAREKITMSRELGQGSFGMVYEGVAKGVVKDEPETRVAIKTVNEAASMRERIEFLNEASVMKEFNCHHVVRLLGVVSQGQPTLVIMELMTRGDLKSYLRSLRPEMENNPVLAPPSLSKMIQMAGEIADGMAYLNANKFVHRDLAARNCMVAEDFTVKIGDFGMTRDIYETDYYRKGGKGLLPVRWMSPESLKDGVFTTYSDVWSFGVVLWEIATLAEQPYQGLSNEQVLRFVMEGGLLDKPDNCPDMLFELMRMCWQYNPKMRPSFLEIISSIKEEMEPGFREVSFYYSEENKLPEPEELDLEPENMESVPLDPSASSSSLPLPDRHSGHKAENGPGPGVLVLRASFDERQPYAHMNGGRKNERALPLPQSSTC
Procedure: as §1

TEC = TEC (Homo sapiens, UniProt P42680); assay: radiometric kinase assay, other kinases: TEC; type: biochemical; conditions: duplicate
Sequence of TEC (P42680 whole entry): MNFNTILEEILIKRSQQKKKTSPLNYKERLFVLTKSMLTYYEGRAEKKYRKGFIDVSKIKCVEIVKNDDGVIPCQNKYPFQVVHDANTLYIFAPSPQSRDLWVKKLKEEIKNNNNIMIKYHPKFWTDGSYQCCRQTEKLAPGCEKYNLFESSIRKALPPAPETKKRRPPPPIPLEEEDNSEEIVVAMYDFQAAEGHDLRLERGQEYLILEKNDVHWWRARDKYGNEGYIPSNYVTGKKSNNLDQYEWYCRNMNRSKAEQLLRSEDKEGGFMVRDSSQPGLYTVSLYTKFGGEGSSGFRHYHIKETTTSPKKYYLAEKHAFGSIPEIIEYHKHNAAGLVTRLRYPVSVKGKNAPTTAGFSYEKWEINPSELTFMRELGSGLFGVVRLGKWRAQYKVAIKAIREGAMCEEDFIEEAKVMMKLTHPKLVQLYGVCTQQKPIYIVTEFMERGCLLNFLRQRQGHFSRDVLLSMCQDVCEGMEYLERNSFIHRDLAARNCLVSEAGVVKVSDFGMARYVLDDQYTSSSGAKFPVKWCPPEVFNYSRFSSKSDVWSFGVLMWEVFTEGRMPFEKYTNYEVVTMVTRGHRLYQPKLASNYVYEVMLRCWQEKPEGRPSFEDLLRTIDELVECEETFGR
Procedure: as §1

[4] = molecular target: other more than 400 kinases; assay: radiometric kinase assay, kinase panel; type: biochemical, human; conditions: duplicate
Procedure: as §1

AKT1 = AKT1 (Homo sapiens, UniProt P31749); assay: radiometric kinase assay, other kinases: AKT1; type: biochemical; conditions: duplicate
Sequence of AKT1 (P31749 whole entry): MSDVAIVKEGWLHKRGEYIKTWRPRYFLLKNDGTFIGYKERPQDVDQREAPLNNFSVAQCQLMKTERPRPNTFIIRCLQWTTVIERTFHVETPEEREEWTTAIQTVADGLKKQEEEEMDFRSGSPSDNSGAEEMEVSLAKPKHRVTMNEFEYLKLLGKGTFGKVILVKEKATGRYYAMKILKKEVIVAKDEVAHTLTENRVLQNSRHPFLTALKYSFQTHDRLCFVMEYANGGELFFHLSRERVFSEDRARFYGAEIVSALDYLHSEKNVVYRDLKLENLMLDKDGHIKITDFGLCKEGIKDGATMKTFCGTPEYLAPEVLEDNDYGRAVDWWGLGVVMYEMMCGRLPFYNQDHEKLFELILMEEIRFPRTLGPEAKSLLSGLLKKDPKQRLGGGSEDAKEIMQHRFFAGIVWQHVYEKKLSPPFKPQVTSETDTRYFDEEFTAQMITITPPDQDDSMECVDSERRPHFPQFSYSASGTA
Procedure: as §1

[5] = Pharmacokinetics and bioavailability in CD-1 mice; conditions: in vivo
Procedure: Pharmacokinetic and bioavailabilities after oral and intraperitoneal (i.p.) treatment bioavailability in CD-1 mice. Pharmacokinetics and bioavailability of after oral and i.p. treatment in CD-1 mice (n=4 per dose group) are determined.

BMX = BMX (Homo sapiens, UniProt P51813); assay: radiometric kinase assay, other kinases: BMX; type: biochemical; conditions: duplicate
Sequence of BMX (P51813 whole entry): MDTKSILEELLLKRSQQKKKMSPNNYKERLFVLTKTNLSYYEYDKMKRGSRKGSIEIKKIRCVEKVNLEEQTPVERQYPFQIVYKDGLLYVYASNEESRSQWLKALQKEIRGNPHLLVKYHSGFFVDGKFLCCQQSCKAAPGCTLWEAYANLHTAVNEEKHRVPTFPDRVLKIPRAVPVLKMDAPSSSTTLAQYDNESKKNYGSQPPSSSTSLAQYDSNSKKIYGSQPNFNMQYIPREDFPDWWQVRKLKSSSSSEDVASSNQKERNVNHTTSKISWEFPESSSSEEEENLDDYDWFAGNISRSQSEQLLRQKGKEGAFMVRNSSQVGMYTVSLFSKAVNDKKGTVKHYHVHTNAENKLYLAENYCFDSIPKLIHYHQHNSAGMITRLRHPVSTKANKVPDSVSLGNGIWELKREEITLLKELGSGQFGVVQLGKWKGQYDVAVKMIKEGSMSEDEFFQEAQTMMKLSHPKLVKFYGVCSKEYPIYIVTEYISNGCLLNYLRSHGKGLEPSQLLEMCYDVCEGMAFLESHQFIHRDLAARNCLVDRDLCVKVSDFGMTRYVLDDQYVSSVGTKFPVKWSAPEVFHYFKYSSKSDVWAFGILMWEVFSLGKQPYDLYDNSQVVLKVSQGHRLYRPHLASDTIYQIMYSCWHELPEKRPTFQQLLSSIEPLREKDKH
Procedure: as §1

VEGFR2/KDR = molecular target: T3, VEGFR2/KDR (Homo sapiens, UniProt P35968); assay: radiometric kinase assay, other kinases: VEGFR2/KDR; type: biochemical; conditions: duplicate
T3 construct: other kinases of recombinant human cytoplasmic domain
T3 sequence (P35968 786-1356 limits assumed): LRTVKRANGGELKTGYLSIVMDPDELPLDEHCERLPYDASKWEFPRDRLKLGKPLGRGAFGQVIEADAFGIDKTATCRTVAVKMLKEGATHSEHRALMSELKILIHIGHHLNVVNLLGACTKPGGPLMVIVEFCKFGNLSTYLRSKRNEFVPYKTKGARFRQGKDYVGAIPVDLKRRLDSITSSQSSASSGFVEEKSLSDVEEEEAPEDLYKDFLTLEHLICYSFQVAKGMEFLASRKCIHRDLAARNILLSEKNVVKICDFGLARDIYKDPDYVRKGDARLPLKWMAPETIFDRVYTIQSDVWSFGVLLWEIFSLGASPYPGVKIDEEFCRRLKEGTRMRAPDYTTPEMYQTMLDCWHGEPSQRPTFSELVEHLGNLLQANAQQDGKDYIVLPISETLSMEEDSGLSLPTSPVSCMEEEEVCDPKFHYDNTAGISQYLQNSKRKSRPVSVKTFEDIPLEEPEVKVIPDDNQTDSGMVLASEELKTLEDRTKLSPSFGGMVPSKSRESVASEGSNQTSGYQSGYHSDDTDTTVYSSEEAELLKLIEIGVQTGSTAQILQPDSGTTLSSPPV
Procedure: as §1

TIE2/TEK = molecular target: T4, TIE2/TEK (Homo sapiens, UniProt Q02763); assay: radiometric kinase assay, other kinases: TIE2/TEK; type: biochemical; conditions: duplicate
T4 construct: other kinases of recombinant human cytoplasmic domain
Procedure: as §1

FYN = FYN (Homo sapiens, UniProt P06241); assay: radiometric kinase assay, other kinases: FYN; type: biochemical; conditions: duplicate
Sequence of FYN (P06241 whole entry): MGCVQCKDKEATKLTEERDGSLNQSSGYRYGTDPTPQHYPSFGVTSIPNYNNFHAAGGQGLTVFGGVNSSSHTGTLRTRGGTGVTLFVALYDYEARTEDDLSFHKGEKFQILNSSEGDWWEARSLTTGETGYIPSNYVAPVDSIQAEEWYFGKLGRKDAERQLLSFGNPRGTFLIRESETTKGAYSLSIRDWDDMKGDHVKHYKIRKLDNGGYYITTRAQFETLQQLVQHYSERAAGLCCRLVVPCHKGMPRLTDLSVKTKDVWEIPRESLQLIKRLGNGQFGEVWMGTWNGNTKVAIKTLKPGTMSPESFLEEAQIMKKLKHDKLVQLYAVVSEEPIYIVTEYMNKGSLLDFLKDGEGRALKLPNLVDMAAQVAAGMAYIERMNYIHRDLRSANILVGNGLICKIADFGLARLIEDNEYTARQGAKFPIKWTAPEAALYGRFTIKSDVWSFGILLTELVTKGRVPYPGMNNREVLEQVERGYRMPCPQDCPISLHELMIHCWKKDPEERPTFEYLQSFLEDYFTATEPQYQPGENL
Procedure: as §1

LYN = LYN (Homo sapiens, UniProt P07948); assay: radiometric kinase assay, other kinases: LYN; type: biochemical; conditions: duplicate
Procedure: as §1

[6] = system: AsPC-1 human pancreatic cancer cells; assay: Cell Viability and Proliferation Assay, AsPC-1; type: cell-based; conditions: ASPC1, after 24 incubation
Procedure: as §2

c-Src = c-Src (Homo sapiens, UniProt P12931); assay: radiometric kinase assay, other kinases: c-Src; type: biochemical; conditions: duplicate
Procedure: as §1

FLT1 = molecular target: T5, FLT1 (Homo sapiens, UniProt P17948); assay: radiometric kinase assay, other kinases: FLT1; type: biochemical; conditions: duplicate
T5 construct: other kinases of recombinant human cytoplasmic domain
Procedure: as §1

[7] = system: Capan-1 human pancreatic cancer cells; assay: Cell Viability and Proliferation Assay, Capan-1; type: cell-based; conditions: after 24 incubation
Procedure: as §2

MEK2 = MEK2 (Homo sapiens, UniProt P36507); assay: radiometric kinase assay, other kinases: MEK2; type: biochemical; conditions: duplicate
Sequence of MEK2 (P36507 whole entry): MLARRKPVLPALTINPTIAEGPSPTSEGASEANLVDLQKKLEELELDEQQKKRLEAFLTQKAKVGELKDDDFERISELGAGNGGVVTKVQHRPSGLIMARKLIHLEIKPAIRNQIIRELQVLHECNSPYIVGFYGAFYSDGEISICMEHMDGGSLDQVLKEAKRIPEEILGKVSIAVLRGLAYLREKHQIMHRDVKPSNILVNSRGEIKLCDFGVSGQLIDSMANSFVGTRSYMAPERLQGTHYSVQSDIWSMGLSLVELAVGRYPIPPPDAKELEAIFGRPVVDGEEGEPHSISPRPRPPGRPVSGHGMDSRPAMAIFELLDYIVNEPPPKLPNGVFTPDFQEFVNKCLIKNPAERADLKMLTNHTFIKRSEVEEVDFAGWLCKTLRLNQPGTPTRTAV
Procedure: as §1

pIC50 (PKCgamma): < 5.00
pIC50 (AXL): < 5.00
pIC50 [1]: 5.30 to 5.70
pIC50 [2]: ~5.15
pIC50 (PKCmu/PKD1): < 5.00
pIC50 [3]: ~5.30
pIC50 (FES/FPS): < 5.00
pIC50 (IGF-1R): < 5.00
pIC50 (TEC): < 5.00
pIC50 [4]: < 5.00
pIC50 (AKT1): < 5.00
half-life ([5]; CD-1, mouse, ip, 50 mg/kg): ~3.5 h
half-life ([5]; CD-1, mouse, iv): ~1 h
bioavailability ([5]; CD-1, mouse, po, 50 mg/kg): ~100%
half-life ([5]; CD-1, mouse, po, 50 mg/kg): ~4.5 h
bioavailability ([5]; mouse, ip, CD-1 mice, 50 mg/kg i.p. dosing, read-out: i.p. bioavailability): ~100%
pIC50 (BMX): < 5.00
pIC50 (VEGFR2/KDR): < 5.00
pIC50 (TIE2/TEK): < 5.00
pIC50 (FYN): < 5.00
pIC50 (LYN): < 5.00
pIC50 [6]: 5.30 to 5.70
pIC50 (c-Src): < 5.00
pIC50 (FLT1): < 5.00
pIC50 [7]: 5.30 to 5.70
pIC50 (MEK2): < 5.00
SMILES: Nc1c(N2CCN(C3CCCCC3)CC2)cc(Nc2ccc(C(=O)O)cc2)c2c1C(=O)c1ccccc1C2=O [Compound 12, 4-{[4-amino-3-(4-cyclohexylpiperazin-1-yl)-9,10-dioxo-9,10-dihydroanthracen-1-yl]amino}benzoic acid]
